Laboratory results as given in US20050043264A1, “Methods of inhibiting neurodegenerative disease” (priority 2003, published 2005).
Entries after “also recorded” stand apart in the source; their conditions may differ. Counter-ions that a name gives are not always drawn.

What was measured:
[1] = system: Dp35; assay: Dp35 cleavage in HA-tagged Dp35 transfected BG2-c2 cells (anti-HA immunoblot); format: cell-based, Drosophila melanogaster; conditions: BG2-c2 cells with HA-tagged Dp35, A23187 with 5 μM CaCl2, 24 hours
Source text: Like Abl, p35 is conserved in Drosophila and functions to modulate Cdk5 activity during neurite outgrowth (Connell-Crowley et al., 2000, Curr. Biol. 10:599). In the AD brain, mammalian p35 is cleaved into p25 by calpain to deregulate Cdk5 (Lee et al., 2000, Nature 405:360). Although a putative calpain is also present in Drosophila (Jekely and Friedrich, 1999, J. Biol. Chem. 274:23893), the consensus calpain cleavage site is absent in Drosophila p35 (Dp35) (FIG. 5A). Therefore, it was unclear whether Dp35 would be converted into p25 upon Aβ42 stimulation. To investigate this possibility, carboxyl-terminal HA-tagged Dp35 was transfected into BG2-c2 cells before treating them with Aβ42or A23187/Ca^2+ (calcium ionophore). […] To analyze the Dp35 cleavage in vivo, transgenic flies co-expressing Dp35 and Aβ42 in the developing eyes were generated using a gmr-GAL4 driver. Consistent with the in vitro result, no visible cleavage or reduction of the Dp35 protein in the Aβ42 transgenic flies were observed (FIG. 5B, right panel).

[2] = system: p35; assay: Cleavage of p35 into p25 in Aβ42-treated IMR-32 cells (immunoblot); format: cell-based, human; conditions: Aβ42 (20 μM) 24 hours, STI571 pretreatment 24 hours
Experimental: (§1) Cell lysate was produced in lysis buffer or extract buffer (Juang and Hoffmann,1999, Oncogene 18:5138) for Cdk5 immunoprecipitation. Proteins were analyzed by direct Western blotting (30 μg/lane) or blotting after immunoprecipitation (1˜2 mg/immunoprecipitation). Immunoprecipitates were collected by binding to protein G PLUS/Protein A-Agarose (Oncogene Research Products, Nottingham UK). The antibodies used are listed below: anti-Cdk5 antibody (clone DC17), (Upstate, Charlottesville, Va.); sc-750, (Santa Cruz Biotechnology, Inc., Santa Cruz Calif.), anti-Cdk5-pY15 antibody (sc-1 2919),(Santa Cruz Biotechnology, Inc., Santa Cruz C), anti-HA antibody (BAbCO, Berkely, Calif.), anti-p35 antibody (sc-820), (Santa Cruz Biotechnology, Inc., Santa Cruz Calif.), and affinity-purified Ena polyclonal antibody (generated by Dr. F. M. Hoffmann' Lab) (McArdle Laboratory for Cancer Research and Laboratory of Genetics, University of Wisconsin-Madison) ECL detection reagent (NEN, Boston, Mass.) was used to detect the immunoreactive proteins.
(§2) To determine if the role of Abl in Drosophila neurodegeneration is conserved in mammals, Abl kinase activity in Aβ42-induced mammalian neuronal apoptosis was investigated. […] Formation of p25 has been considered a causative agent that contributes to the deregulation of Cdk5 in human AD (Lee et al., 2000, Nature 405:360; Patrick et al., 1999, Nature 402:615). […]

[3] = system: Cdk5; assay: Cdk5 kinase activity in Aβ42-treated IMR-32 cells (histone H1 kinase assay); format: cell-based, human; conditions: Aβ42 (20 μM) 24 hours, STI571 pretreatment 24 hours
Experimental: (§3) A kinase assay was performed by washing immunoprecipitates three times with kinase reaction buffer (50 mM HEPES [pH 7.0], 10 mM MgCl2, and 1 mM DTT). The beads with target proteins were incubated with kinase reaction buffer containing 2 μg of substrate (histone H1)(Calbiochem, San Diego, Calif.) and 10 μCi of ^33Pγ-ATP in a final volume of 40 μl at 30° C. for 30 minutes.
(§4) To determine if the role of Abl in Drosophila neurodegeneration is conserved in mammals, Abl kinase activity in Aβ42-induced mammalian neuronal apoptosis was investigated. […] Formation of p25 has been considered a causative agent that contributes to the deregulation of Cdk5 in human AD (Lee et al., 2000, Nature 405:360; Patrick et al., 1999, Nature 402:615). […] Thus, it was important to determine whether the conversion of p35 into p25 is sufficient to deregulate Cdk5 activity while Abl activation is inhibited. […] The cells were then assayed for Cdk5 kinase activity and Y-15 phosphorylation.

[4] = system: Cdk5-pY15; assay: Cdk5-pY15 in Aβ42-treated IMR-32 cells (immunoblot); format: cell-based, human; conditions: Aβ42 (20 μM) 24 hours, STI571 pretreatment 24 hours
Experimental: as §1, §2

[5] = system: Cdk5; assay: In vitro Cdk5 kinase assay of immunoprecipitates with histone H1 as substrate, BG2-c2 cells; format: cell-based, Drosophila melanogaster; conditions: for Abl kinase activity regulation, used to confirm Abl requirement for modulation of Cdk5 kinase: BG2-c2 cells, other Abl kinase regulating agents
Experimental: as §3
Whether Cdk5 was activated in the Abl-Cdk5 complex was also investigated. Cdk5 was immunoprecipitated from the cell lysate for an vitro kinase assay, using histone H1 as a substrate (Connell-Crowley et al., 2000, Curr. Biol. 10:599). Similar to results reported for mammalian cells (Alvarez et al., 2001, Exp. Cell Res. 264:266), Drosophila Cdk5 kinase activity was elevated following Aβ42 treatment as compared to controls (FIG. 2B, bottom panel). […] Moreover, other Abl kinase regulating agents including doxorubicin (DX) and erbstatin analog (EA) were used to activate or suppress Abl kinase activity, respectively, and confirmed that Abl kinase activity was required for modulation of Cdk5 kinase.

[6] = system: Cdk5-pY15; assay: Cdk5-Y15 phosphorylation (Cdk5-pY15) immunoblot, BG2-c2 cells; format: cell-based, Drosophila melanogaster; conditions: Aβ42 (2 μM)-treated BG2-c2 cells; STI571 20 μM 60 minutes; dsRNA 20 μg/2×10^6 cells two days before Aβ42
Experimental: To understand the role of Drosophila Cdk5 in neurodegeneration, the phosphorylation of Cdk5-Y15 was investigated to determine if it was correlated with the pathological activation of Cdk5 in neuronal cells. Cdk5-Y15 phosphorylation (Cdk5-pY15) levels in BG2-c2 cells were examined over time following treatment with 2 μM Aβ42. The presence of […] in the immunoprecipitates was shown by immunoblotting with an anti-phospho antibody specific for Cdk5-pY15. Within 60 minutes, Aβ42 caused an elevation of Cdk5-pY15, which was coincident with an increase in Cdk5 kinase activity (FIG. 4A). […] Moreover, dsRNA-abl (20 μg/2×10^6 cells) was transfected into BG2-c2 cells to reduce Abl expression two days before Aβ42 treatment.

[7] = system: BG2-c2 neuronal cells; assay: Cdk5 subcellular translocalization by immunostaining and confocal microscopy; format: cell-based, Drosophila melanogaster; conditions: 2 μM Aβ42 one hour, agent given simultaneously with or before Aβ42 (BL-1 5 μM)
[8] = system: IMR-32 cells; assay: Neuronal viability, Aβ42-induced IMR-32 neuronal death; format: cell-based, human; conditions: IMR-32 cells pretreated 24 hours with STI571, then Aβ42 24 or 72 hours
Experimental: (§5) The modified MTT assay (Sigma, St Louis, Mo.) was used to quantify neuronal cell viability (Lee et al., 2000, Nature 405:360). The intensities were measured using an optical density reader (SpectroMAXplus, Molecular Devices, Sunnyvale, Calif.) at 570 nm (background: 630 nm) and proportionally represented the viable cell numbers.
as §4

[9] = system: BG2-c2 cells; assay: Modified MTT cell viability assay, Aβ42-induced neuronal death; format: cell-based, Drosophila melanogaster; conditions: BG2-c2 cells treated with Aβ42; dsRNA transfected two days before Aβ42 for 24 hours
Experimental: as §5

## CNc1ccc2oc(C[C@H]3O[C@@]4(CC[C@H]3C)O[C@H]([C@H](C)C(=O)c3ccc[nH]3)[C@H](C)C[C@H]4C)nc2c1C(=O)O [A23187]
[1]
  Dp35 cleavage / Dp35 protein levels: no noticeable cleavage or reduction; also recorded: no detectable cleavage or reduction

## CCCC[C@@H](C=O)NC(=O)[C@H](CC(C)C)NC(=O)OCc1ccccc1 [Calpeptin]
[2]
  Cleavage of p35 into p25 (formation of p25): blockade of p35 cleavage
[3]
  Cdk5 kinase activity: considerably reduced
[4]
  Cdk5-pY15 (Y15 phosphorylation): did not diminish

## Cc1ccc(NC(=O)c2ccc(CN3CCN(C)CC3)cc2)cc1Nc1nccc(-c2cccnc2)n1 [STI571, imatinib mesylate]
[5]; Aβ42 (2 μM)-treated BG2-c2 cells, STI571 20 μM 60 minutes, dsRNA 20 μg/2×10^6 cells two days before Aβ42
  Cdk5 kinase activity (histone H1 phosphorylation): sharply diminished; also recorded: reduced
[6]
  Cdk5-pY15 (Cdk5-Y15 phosphorylation): diminished; also recorded: reduced
[3]
  Cdk5 kinase activity: abolished; also recorded: suppressed
[7]
  Aβ42-stimulated Cdk5 translocalization to the perinuclear cytoplasm: markedly suppressed; also recorded: no Abl or Cdk5 protein translocalization to perinuclear region
[8]
  Aβ42-induced IMR-32 neuronal death (neuronal viability): rescued the neuronal death; also recorded: effectively suppressed
[9]
  Aβ42-induced neuronal death (neuronal viability, MTT): rescued Aβ42-induced neuronal death; also recorded: suppressed
[4]
  Cdk5-pY15 (Y15 phosphorylation): abolished; also recorded: suppressed

## COc1cccc2c1C(=O)c1c(O)c3c(c(O)c1C2=O)C[C@@](O)(C(=O)CO)C[C@@H]3O[C@H]1C[C@H](N)[C@H](O)[C@H](C)O1 [doxorubicin]
[5]
  Abl kinase activity regulation, used to confirm Abl requirement for modulation of Cdk5 kinase: activate

## COC(=O)C=Cc1cc(O)ccc1O [erbstatin analog, 2,5-dihydroxymethylcinnamate]
[5]
  Abl kinase activity regulation, used to confirm Abl requirement for modulation of Cdk5 kinase: suppress
